According to patent publication US9555040B2, “Methods of treating proliferative diseases” (Ambit Biosciences Corporation, priority 2009, dated 2017):

Columns and labels:
[1] = Phase I clinical trial: safety, tolerability, dose limiting toxicity; format: in vivo, human
Text: This study was the first human clinical trial of the compound of Formula I or a pharmaceutically acceptable salt or solvate thereof in humans having relapsed or refractory acute myeloid leukemia. The study was open labeled and designed to determine the safety, tolerability, dose limiting toxicity (DLT), pharmacokinetics and pharmacodynamics of escalating doses.
The study included adult patients with relapsed or refractory AML, or unsuitable for induction chemotherapy. Demographics and baseline characteristics were as follows: median age was 60 years, with a range of 23-86 years. Sixty percent of the patients were male. […] Eleven (15%) patients had prior allogeneic hematopoietic stem cell transplant (HSCT) and 13 (17%) patients had secondary AML with antecedent MDS or MDS/MPD. A total of 20 patients had FLT3 mutations (17 ITD and 3 D835), 43 were wild-type, and 13 were undetermined.
Patients with clinical benefit were allowed to continue for additional cycles at the discretion of the investigator. The protocol was subsequently amended to allow for continuous dosing of the compound starting at 200 mg on Day 1. In addition to patients included in the 200 mg (17 patients) and 300 mg (8 patients) continuous dosing cohort, there were at least 8 patients who, at the investigators discretion and per protocol, received continuous dosing after cycle 1 of intermittent dosing ranging from 19-187 days.
In addition, the safety profile was similar between patients receiving continuous dosing and those on the intermittent schedule. These included general disorders (e.g., pyrexia and fatigue), gastrointestinal disorders (e.g., nausea, diarrhea and vomiting) and hematologic disorders (eg, anemia, neutropenia and thrombocytopenia).
Out of the 76 patients treated with the compound in this study, 38 patients (50%) reported a total of 94 serious adverse events (SAEs) (defined as CTC Grade 3 or greater). The majority of the SAEs were considered by the investigator to be not related to study treatment. Only 6 patients (7.9%) reported SAEs that were initially considered to be related to treatment with the compound. These included one patient with lung infection, one patient with vomiting and one patient with nausea, anorexia, and upper abdominal pain. The investigator subsequently revised the event of anorexia for the patient to non-serious. In addition, three patients were noted by the site investigators using local ECG analysis to have reported Grade 3 QTc prolongation of >500 ms which was considered to be a dose-limiting toxicity for the study according to the protocol.
Based on the site reported dose-limiting toxicity of Grade 3 QTc prolongation, a detailed evaluation of the cardiac safety of the compound was conducted. As defined in the protocol, a single 12-lead electrocardiogram (ECG) had been performed using standardized equipment at the site at Visits 1 (screen), 2 (Baseline—at Hours 0, 2, and 4), 4 (Day 8 at Hours 0 and 4), and depending on the version of the protocol active at the time of assessment for each patient, 6 (Day 14 or 15), 7 (Day 21 or 22), 8 (Day 28 or 29), 9 (Day 36), 10 (Day 43), 11 (Day 50), 12 (Day 57) and at the end of the study or early termination. ECG assessments and interpretations initially were performed by the site's cardiologist or other qualified site personnel. To improve upon the accuracy of these locally-analyzed data, a central digitized blinded analysis of all ECGs collected to date was undertaken by a core ECG laboratory (EResearchTechnology in Philadelphia, Pa.). Due to some issues with readability, 72 patients (out of 76 patients enrolled in the study) were included in this analysis. […] The phase I study was not designed to define the ECG effects of the compound, which will be more closely monitored in the phase II study.

[2] = system: relapsed or refractory acute myeloid leukemia; assay: Phase I clinical trial: efficacy, responses per modified Cheson criteria; format: in vivo, human
Method: The study was open labeled and designed to determine the safety, tolerability, dose limiting toxicity (DLT), pharmacokinetics and pharmacodynamics of escalating doses.
The study included adult patients with relapsed or refractory AML, or unsuitable for induction chemotherapy.
Patients with clinical benefit were allowed to continue for additional cycles at the discretion of the investigator. The protocol was subsequently amended to allow for continuous dosing of the compound starting at 200 mg on Day 1.
Preliminary response data was evaluated in all 76 patients treated with the compound.
Responses were defined per modified Cheson criteria.

[3] = Phase I clinical trial: plasma pharmacokinetics; format: in vivo, human
Method: In addition, plasma samples were collected on day 15 (˜24 hrs post final dose) to evaluate steady-state trough levels. Bioanalysis of the compound was initially conducted at Consolidated Laboratory Services (CLS), Van Nuys, Calif. […] The coefficient of variation (CV %) for AUCO-24 at steady-state is modest at the lowest dose of 12 mg (33%) and high for the 450 mg cohort (82%). While the variability tended to be higher at higher doses, there was not a clear relationship between variability and either dose or […].
This analysis was conducted at MicroConstants, San Diego, Calif.

[4] = system: pSTAT5; assay: Pharmacodynamics: pSTAT5 in patient samples; format: in vivo, human; settings: subset of 17 patients, very preliminary
Text: STATS is a downstream signaling pathway activated by FLT3 following binding of FLT3 ligand leading to receptor dimerization, increased kinase activity and activation of downstream signaling pathways including STATS.

[5] = Animal toxicology studies; format: in vivo
[6] = FLT3-ITD patients, 200 mg continuous dosing (n=5)
[7] = patients with FLT3-ITD mutation (n=17)

CC(C)(C)c1cc(NC(=O)Nc2ccc(-c3cn4c(n3)sc3cc(OCCN5CCOCC5)ccc34)cc2)no1 [compound of formula I, N-(5-tert-butyl-isoxazol-3-yl)-N′-{4-[7-(2-morpholin-4-yl-ethoxy)imidazo[2,1-b][1,3]benzothiazol-2-yl]phenyl}urea]
30-day treatment-related mortality ([1]; 76 patients, to date): no 30-day treatment-related mortality | patients who died during the study ([1]; all deaths disease or comorbidity associated, not treatment related): 12 patients | grade of the majority of treatment-related adverse events ([1]; both, human, in vivo): CTC Grade 1 and 2 | patients reporting SAEs initially considered related to treatment ([1]; both, human, in vivo): 7.9% | patients reporting serious adverse events (CTC Grade 3 or greater) ([1]; both, human, in vivo): 50% | total number of serious adverse events reported ([1]; both, human, in vivo): 94 | liver or kidney abnormalities as drug-related serious adverse events (BUN, creatinine, ALT, AST, ALP, bilirubin) ([1]; human, in vivo): no liver or kidney abnormalities | patients with Grade 3 QTc prolongation of >500 ms (dose-limiting toxicity) ([1]; human, in vivo): three | bone marrow responses within the first 29 days of treatment (Cycle 1) ([2]; 15/22 responders): 68% | CR [2, 6]: 1 patients | CRi [2, 6]: 1 patients | CRp [2, 6]: 1 patients | PR [2, 6]: 2 patients | overall response rate (CR+CRp+CRi+PR) ([2]; FLT3-ITD patients, 200 mg continuous dosing, 5/5): 100% | CR with complete hematologic recovery ([2]; all 76 patients): 2 patients | CR with incomplete platelet and neutrophil recovery (CRi) ([2]; all 76 patients): 4 patients | CR with incomplete platelet recovery (CRp) ([2]; all 76 patients): 4 patients | patients achieving complete remission (CR, all types) ([2]; all 76 patients): Ten | patients with partial remission (PR) ([2]; all 76 patients): Fourteen | peripheral blast reduction (>25% at baseline with >50% decrease post-treatment to 0-25%) ([2]; all patients): most patients had a peripheral blast reduction | overall response (CR+PR) ([2]; all patients, 12 mg-450 mg, 24/76): 32% | patients reporting a response after Cycle 2 ([2]; of the remaining 7 responders): 3 patients | patients reporting a response within 57 days (Cycle 2) ([2]; of the remaining 7 responders): 4 patients | CR [2, 7]: 1 patients | CRi [2, 7]: 3 patients | CRp [2, 7]: 1 patients | PR [2, 7]: 6 patients | overall response rate ([2]; patients with FLT3-ITD mutation, 11/17): 65% | median duration of remission ([2]; range, 4 to 61+ weeks): 14.1 weeks | dose dependence of steady-state plasma exposure (AUC) ([3]; human, in vivo): increased in a dose proportional manner | peak and trough variation of plasma levels ([3]; human, in vivo): minimal peak and trough variation | time to steady-state plasma exposure ([3]; human, in vivo): ≤ 8 days | coefficient of variation (CV %) for AUC0-24 at steady-state ([3]; human, in vivo, 12 mg): 33% | coefficient of variation (CV %) for AUC0-24 at steady-state ([3]; human, in vivo, 450 mg): 82% | half-life ([3]; human, in vivo, effective half-life): ~36 h | oral bioavailability ([3]; human, in vivo, po): orally bioavailable | half-life ([3]; human, in vivo, terminal T1/2): 31.2 h | effect on pSTAT5 [4]: dose-dependent effect is consistent with that observed with pFLT3 | target organ toxicity [5]: Bone marrow hypocellularity

CC(C)(CO)c1cc(NC(=O)Nc2ccc(-c3cn4c(n3)sc3cc(OCCN5CCOCC5)ccc34)cc2)no1 [compound of formula II]
average steady state plasma ratio of formula II/I ([3]; human plasma, n=60): 0.4 | plasma ratio of compounds of formula II/I, highest in one patient ([3]; human plasma, n=60): ≤ 3.14 | steady-state plasma level ([3]; patients dosed at 200 mg of the compound of formula I): ~300 ng/mL
